Converted amounts (≈) assume the structure as drawn. Structures can show the parent of a compound that is named as a salt. Where two headings read alike, the source gives them in different places.
Columns and labels:
[1] = pH solubility profile of GDC-0941 (shake flask method); assay type: physicochemical; conditions: 50 mM USP buffer, aqueous buffer, thermodynamic from solid, 48 hours at 37° C.
Procedure: The solubility test was conducted using the shake flask method. […] Each sample was prepared at a volume of approximately 2 mL, with excess solid in each sample. […] Samples were then filtered and concentrations were determined by HPLC under reversed-phase conditions using a C18 column, and elution with a phosphate buffer (pH 6.5), acetonitrile gradient. The injection volume was 5 μL, with a flow rate of 1.2 mL/min and detection at 230 nm.

[2] = Oral exposure of GDC-0941 in dogs with famotidine, pentagastrin or betaine HCl pretreatment; assay type: in vivo; conditions: male, beagle, dog, plasma, 40 mg, 40 mg oral
Procedure: Group 2 dogs were pretreated with famotidine 40 mg tablet to induce hypochlorhydria and as a negative control. Group 3 dogs were pretreated with pentagastrin by intramuscular injection 6 mg/kg. Pentagastrin is a synthetic peptide which stimulates the secretion of […], pepsin, and intrinsic factor, and lowers the pH of the gut through physiologic stimulation of acid secretion. […] Group 5 dogs were pretreated with famotidine, then treated with betaine HCl, 2×750 mg tablets.
(§1) Group 1: no pretreatment (control)

[3] = Effect of rabeprazole on pharmacokinetics of GDC-0941 in patients with advanced solid tumors; assay type: in vivo; conditions: cancer patients pretreated with rabeprazole 20 mg Days 4-8, Day 8 vs Day 1
[4] = media with enough betaine HCl to lower the pH to 2.4 or below
[5] = Oral exposure of dasatinib and gastric pH in dogs with famotidine, pentagastrin or betaine HCl pretreatment; assay type: in vivo, beagle dogs
Procedure: Dogs were treated with dasatinib 50 mg tablet (Example 5). Dogs in each group received the following pretreatment: Group 1: no pretreatment (control); Group 2: famotidine 40 mg tablet orally, 3 hours prior to dasatinib; Group 3: pentagastrin by intramuscular injection (6 mg/kg) 30 min before dasatinib administration; Groups 4 and 5: Two betaine HCl 750 mg tablets were administered to the two groups as follows: one betaine HCl tablet orally 5 min before dasatinib and the other 20 min before dasatinib Group 5 was also treated with famotidine 40 mg tablet orally, 3 hours prior to dasatinib. […] Betaine HCl performs as well as pentagastrin, and improves dasatinib/famotidine exposure (AUC, FIG. 5C).
Dasatinib pharmacokinetics was evaluated in dogs with famotidine-induced hypochlorhydria (FIG. 5A). Dasatinib was administered as a 50 mg SPRYCEL® (Bristol-Myers Squibb) tablet. Famotidine 40 mg tablets were administered 3 hrs before dasatinib. Pentagastrin injection was administered intramuscularly 30 min prior before dasatinib administration. Two betaine HCl 750 mg tablets administered at the following times: 1 orally 20 min and 5 min prior to dasatinib administration.
Five groups of naïve, male beagle dogs (n=4 per group) each received a different pretreatment prior to dasatinib treatment.
as §1
Group 2: famotidine 40 mg tablet orally, 3 hours prior to dasatinib
Group 3: pentagastrin by intramuscular injection (6 mg/kg) 30 min before dasatinib administration
Groups 4 and 5: Two betaine HCl 750 mg tablets were administered to the two groups as follows: one betaine HCl tablet orally 5 min before dasatinib and the other 20 min before dasatinib
Group 5: famotidine 40 mg tablet orally, 3 hours prior to dasatinib.

[6] = test system: gastric pH; assay: Gastric pH (Heidelberg capsule) after betaine HCl in healthy volunteers with rabeprazole-induced hypochlorhydria; assay type: in vivo
Procedure: The pH of the stomach was measured over time with a Heidelberg capsule with tether swallowed at t=0. […] Onset of effect of betaine HCl was rapid, with a mean time to pH<3 of 6.3 (±4.3) min, and its duration was adequate but temporary, with a gastric pH<3 and <4 lasting 72.5 (±32.9) and 76.8 (±30.4) min, respectively.
Dasatinib pharmacokinetics was evaluated in healthy volunteer subjects with rabeprazole-induced hypochlorhydria by dosing 20 mg oral rabeprazole twice daily for 4 days. On the morning (a.m.) of study day 5, subjects received an additional 20 mg oral rabeprazole, and the Heidelberg Capsule pH diagnostic system (HC) was used for continuous gastric pH monitoring. When gastric pH remained >4 for at least 15 min, a 1500 mg dose of betaine HCl was given orally, and gastric pH was monitored for 2 h. During part 2 of this study a 3-period crossover study, five of ten subjects each received: (A) 100 mg dasatinib (Control); (B) 100 mg dasatinib after rabeprazole pre-treatment; (C) 100 mg dasatinib, 1500 mg betaine HCl, after rabeprazole pre-treatment. For treatments B+C, 20 mg rabeprazole twice daily was given for 3 days prior to and on the a.m. of each study day. Gastric pH was monitored and DAS plasma concentrations were measured over 22 h (see study schematic below) with dasatinib concentration versus time results shown in FIG. 8A and exposure (AUC) in FIG. 8B.

[7] = cited from earlier work
[8] = cited from earlier work; remark: listed apart in the source
[9] = cited from earlier work; remark: listed apart in the source
[10] = 100 mg dasatinib after 40 mg omeprazole daily for 4 days; cited from earlier work
[11] = cited from earlier work; remark: listed apart in the source
[12] = single 50-mg dose 10 hours following 40 mg of famotidine

CS(=O)(=O)N1CCN(Cc2cc3nc(-c4cccc5[nH]ncc45)nc(N4CCOCC4)c3s2)CC1 [GDC-0941, 4-(2-(1H-indazol-4-yl)-6-((4-(methylsulfonyl)piperazin-1-yl)methyl)thieno[3,2-d]pyrimidin-4-yl)morpholine]
solubility at 48 h ([1]; all tested pH values above pH 4.4, read-out: measured solubility): ~1 µg/mL (≈ 1.95 µM)
solubility at 48 h ([1]; pH 1.0, read-out: solubility): ~800 µg/mL (≈ 1560 µM)
solubility at 48 h ([1]; pH 3.0, read-out: solubility): ~8 µg/mL (≈ 15.6 µM)
solubility at 48 h ([1]; pH 7.5, read-out: solubility): < 1 µg/mL
AUC ([2]; Group 4 (betaine HCl only pretreatment)): 7.38 µM·h
AUC ([2]; Group 5 (famotidine+betaine HCl), excluding animal D501 (n=3)): 7.12 µM·h
decrease of GDC-0941 (AUC, FIG. 7) [3]: 40%
drug rapidly dissolved and maintained in solution [4]: greater than 90%

C[N+](C)(C)CC(=O)O [betaine HCl, Betaine hydrochloride]
effect on gastric pH ([5]; dogs treated with famotidine+betaine HCl): reversal of hypochlorhydria
lowering of gastric pH ([6]; 30 min interval after dosing 1500 mg, N=6): 4.54 (±0.46) units
duration of gastric pH<3 ([6]; after 1500 mg betaine HCl): 72.5 (±32.9) min
duration of gastric pH<4 ([6]; after 1500 mg betaine HCl): 76.8 (±30.4) min
mean time to pH<3 ([6]; after 1500 mg betaine HCl): 6.3 (±4.3) min

Cc1nc(Nc2ncc(C(=O)Nc3c(C)cccc3Cl)s2)cc(N2CCN(CCO)CC2)n1 [dasatinib, Dasatinib]
dasatinib levels ([5]; dogs, dasatinib+famotidine without betaine HCl, 50 mg tablet): at or below the limits of assay detection
solubility ([7]; pH 2.6, 24° C.): ~18000 µg/mL (≈ 36900 µM)
solubility ([7]; pH 4.0, 24° C.): ~690 µg/mL (≈ 1410 µM)
solubility ([7]; pH 4.28, 24° C.): 205 µg/mL (≈ 420 µM)
solubility ([7]; pH 7.0, 24° C.): < 1 µg/mL
solubility of highest commercial dose strength (140 mg) in 250 mL of water ([7]; pH range of 4.3 to 7.0 at 24° C.): not soluble
exposure ([8]; Maalox 30 mL administered 2 hours prior to dasatinib): unchanged
reduction of bioavailability (AUC) ([8]; dasatinib 50 mg BID, famotidine 40 mg 10 hours prior): 61%
reduction of AUC0-12 [8, 12]: ~60%
reduction of Cmax [8, 12]: ~60%
between-subject variability in Ka ([9]; in vivo): exceeded 100%
between-subject variability in relative bioavailability (FR) ([9]; in vivo): 33%
inter-occasion variability (IOV) within a subject in FR ([9]; in vivo): 44%
decrease of FR with use of PPI ([9]; not statistically significant): 17%
decrease of AUCinf [10]: 43%
decrease of Cmax [10]: 42%
reduction of bioavailability [10]: ~40%
increase in AUCinf ([11]; high fat meal): 14%
increase in AUCinf ([11]; low fat meal): 21%

NC(N)=Nc1nc(CSCCC(N)=NS(N)(=O)=O)cs1 [famotidine]
effect on gastric pH ([5]; dogs pretreated with famotidine 40 mg): significant hypochlorhydria (increased gastric pH)

— patent US20130096116A1, “TREATMENT OF PHARMACOLOGICAL-INDUCED HYPOCHLORHYDRIA” (Genentech, Inc., priority 2011, published 2013)
